pIC50: −log10 of the molar value.
Tests used:
Test in all cases: in vitro DltA activity assay
[1] = molecular target: T1, D-alanine--D-alanyl carrier protein ligase (Staphylococcus aureus, UniProt Q2FZW6)
T1 construct: gene dltA
Method: (§1) The assay buffer AB contained 50 mM Hepes pH8.0, 10 mM MgCl2, 50 mM KCl, 0.012% Triton-X100, 10 mM DTT and 100 nM Myelin-basic protein. The following components were added in a white polystyrene Costar plate up to a final volume of 30 μL: 3 μL DMSO, or inhibitor dissolved in DMSO and 27 μL DltA enzyme in AB. After 30 min of pre-incubation at room temperature, 30 μL of Substrates mix in AB were added in each well to a final volume of 60 μL. This reaction mixture was then composed of DltA (produced in house from S. aureus, E. faecalis, E. faecium and S. agalactiae), 0.5 mM D-Alanine (Sigma), 0.5-5 μM ATP (Sigma) and 0.05 u/ml inorganic pyrophosphatase (Sigma) in assay buffer. After typically 1-2 hours of incubation at room temperature (conversion rate around 30%), 30 μL of the revelation mix were added to a final volume of 90 μL, including the following constituents at the respective final concentrations: 10000 u/ml luciferase (Sigma), 30 μM D-luciferin (Sigma), 100 μM N-acetylcysteamine (Aldrich). Luminescence intensity was immediately measured on a Fluostar Optima (BMG) (excitation 360 nm, emission 520 nm) and converted into inhibition percentages. For IC50 determinations (Inhibitory Concentration 50%) the inhibitor was added at 6 to 10 different concentrations and the related inhibitions were fitted to a classical Langmuir equilibrium model using XLFIT (IDBS).

[2] = molecular target: T2, D-alanine--D-alanyl carrier protein ligase (Enterococcus faecium (strain ATCC BAA-472 / TX0016 / DO), UniProt Q3XZT7)
T2 sequence (Q3XZT7 whole entry): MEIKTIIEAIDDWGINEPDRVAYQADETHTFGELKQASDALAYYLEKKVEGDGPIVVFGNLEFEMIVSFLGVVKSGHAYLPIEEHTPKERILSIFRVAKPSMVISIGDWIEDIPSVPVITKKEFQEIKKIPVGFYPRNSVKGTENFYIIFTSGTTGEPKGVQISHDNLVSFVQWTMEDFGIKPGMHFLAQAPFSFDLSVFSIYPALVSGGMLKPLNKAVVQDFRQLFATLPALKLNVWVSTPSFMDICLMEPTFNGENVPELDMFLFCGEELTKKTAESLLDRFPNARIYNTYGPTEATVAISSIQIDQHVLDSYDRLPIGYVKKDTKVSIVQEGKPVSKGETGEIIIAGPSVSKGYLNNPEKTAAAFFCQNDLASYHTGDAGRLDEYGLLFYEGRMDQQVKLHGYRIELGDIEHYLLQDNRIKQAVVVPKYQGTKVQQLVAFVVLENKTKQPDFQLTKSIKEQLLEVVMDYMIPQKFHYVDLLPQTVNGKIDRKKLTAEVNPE
Method: as §1

[3] = molecular target: T3, D-alanine--D-alanyl carrier protein ligase (Enterococcus faecalis (strain ATCC 700802 / V583), UniProt Q830N0)
T3 sequence (Q830N0 whole entry): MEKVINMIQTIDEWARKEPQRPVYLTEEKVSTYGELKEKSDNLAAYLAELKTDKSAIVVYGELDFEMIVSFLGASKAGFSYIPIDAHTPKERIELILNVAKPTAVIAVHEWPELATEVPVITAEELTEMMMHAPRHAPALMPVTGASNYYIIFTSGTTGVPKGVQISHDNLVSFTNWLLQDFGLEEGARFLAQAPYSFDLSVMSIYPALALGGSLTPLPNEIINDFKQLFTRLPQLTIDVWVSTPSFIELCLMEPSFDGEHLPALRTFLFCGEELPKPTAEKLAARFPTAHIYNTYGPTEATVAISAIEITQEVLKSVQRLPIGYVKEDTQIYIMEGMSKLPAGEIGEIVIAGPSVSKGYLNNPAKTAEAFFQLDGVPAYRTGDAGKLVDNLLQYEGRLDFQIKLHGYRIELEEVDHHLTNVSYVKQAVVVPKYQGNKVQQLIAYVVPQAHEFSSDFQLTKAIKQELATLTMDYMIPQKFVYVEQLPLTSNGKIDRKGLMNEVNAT
Method: as §1

T1 sequence (Q2FZW6 whole entry, looked up): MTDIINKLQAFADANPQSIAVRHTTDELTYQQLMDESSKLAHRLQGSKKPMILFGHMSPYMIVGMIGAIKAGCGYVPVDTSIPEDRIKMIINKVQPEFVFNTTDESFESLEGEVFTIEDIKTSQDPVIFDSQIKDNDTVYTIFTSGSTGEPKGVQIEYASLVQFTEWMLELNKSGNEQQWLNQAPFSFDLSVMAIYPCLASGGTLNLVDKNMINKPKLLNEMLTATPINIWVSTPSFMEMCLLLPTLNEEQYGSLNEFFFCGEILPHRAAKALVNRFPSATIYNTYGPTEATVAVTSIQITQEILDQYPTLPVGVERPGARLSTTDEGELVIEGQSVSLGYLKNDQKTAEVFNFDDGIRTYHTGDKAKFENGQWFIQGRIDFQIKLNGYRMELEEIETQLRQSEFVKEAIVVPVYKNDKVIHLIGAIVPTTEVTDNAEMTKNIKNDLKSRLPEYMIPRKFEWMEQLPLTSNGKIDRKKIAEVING

| SMILES | pIC50 [1] | pIC50 [2] | pIC50 [3] |
| --- | --- | --- | --- |
| CCn1cnc2cc(-c3cc(OCCN(C)C)c(C(N)=O)c4[nH]cnc34)ccc21 [US10301305, Example 198] | 8.17 | 7.14 | 8.08 |
| COc1cc(-c2ccc3c(c2)ncn3C2CCCCC2)c2nc[nH]c2c1C(N)=O [US10301305, Example 88] | 7.48 | 7.10 | 7.59 |
| C[C@H]1CCCC(n2cnc3cc(-c4cc(N(C)CCN(C)C)c(C(N)=O)c5[nH]cnc45)ccc32)C1 (mixture of isomers) | – | 7.60 | 8.37 |

Source: BindingDB's records for patent US10301305 (Mutabilis, 2019)
